Assay results from ChEMBL document CHEMBL1671652, “Efficacy of piperacillin combined with the Penem beta-lactamase inhibitor BLI-489 in murine models of systemic infection” (2009).
Converted amounts (≈) assume the structure as drawn.

Tests used:
Salmonella typhimurium [1] = test: Antimicrobial activity against CTX-M-5 beta-lactamase producing Salmonella enterica serovar Typhimurium GC 4195 infected in CD-1 mouse treated 30 and 150 mins postinfection; format: functional, Salmonella enterica subsp. enterica serovar Typhimurium
Enterobacter cloacae [2] = test: Antimicrobial activity against AmpC beta-lactamase producing Enterobacter cloacae GC 4142 by broth microdilution method; format: functional
Enterobacter cloacae [3] = test: Antimicrobial activity against AmpC beta-lactamase producing Enterobacter cloacae GC 4142 by broth microdilution method in presence of 8:1 ratio of compound to beta-lactamase inhibitor BLI-489; format: functional
Staphylococcus aureus [4] = test: Antimicrobial activity against penicillinase producing Staphylococcus aureus GC 6468 infected in CD-1 mouse treated 30 and 150 mins postinfection; format: functional
Escherichia coli [5] = test: Antimicrobial activity against OXA-1 beta-lactamase producing Escherichia coli GAR 5946 infected in CD-1 mouse treated 30 and 150 mins postinfection in presence of beta-lactamase inhibitor Tazobactam; format: functional
Escherichia coli [6] = test: Antimicrobial activity against TEM-1 beta-lactamase producing Escherichia coli GC 6265 by broth microdilution method; format: functional
Enterobacter cloacae [7] = test: Antimicrobial activity against AmpC beta-lactamase producing Enterobacter cloacae GC 4142 infected in CD-1 mouse treated 30 and 150 min postinfection in presence of 6:1 ratio of compound to beta-lactamase inhibitor BLI-489; format: functional
Staphylococcus aureus [8] = test: Antimicrobial activity against penicillinase producing Staphylococcus aureus GC 6468 infected in CD-1 mouse treated 30 and 150 mins postinfection in presence of 8:1 ratio of compound to beta-lactamase inhibitor BLI-489; format: functional
Pseudomonas aeruginosa [9] = test: Antimicrobial activity against AmpC beta-lactamase producing Pseudomonas aeruginosa GC 1764 infected in CD-1 mouse treated 30 and 150 mins postinfection in presence of beta-lactamase inhibitor Tazobactam; format: functional
Escherichia coli [10] = test: Antimicrobial activity against OXA-1 beta-lactamase producing Escherichia coli GAR 5946 infected in CD-1 mouse treated 30 and 150 mins postinfection; format: functional
Escherichia coli [11] = test: Antimicrobial activity against TEM-1 beta-lactamase producing Escherichia coli GC 6265 infected in CD-1 mouse treated 30 mins postinfection in presence of 12:1 ratio of compound to beta-lactamase inhibitor BLI-489; format: functional; details: GC 6265, 0.5 h
Staphylococcus aureus [12] = test: Antimicrobial activity against penicillinase producing Staphylococcus aureus GC 6468 infected in CD-1 mouse treated 30 and 150 mins postinfection in presence of beta-lactamase inhibitor Tazobactam; format: functional
Enterobacter cloacae [13] = test: Antimicrobial activity against AmpC beta-lactamase producing Enterobacter cloacae GC 4142 infected in CD-1 mouse treated 30 and 150 min postinfection; format: functional
Enterobacter cloacae [14] = test: Antimicrobial activity against AmpC beta-lactamase producing Enterobacter cloacae GC 4142 infected in CD-1 mouse treated 30 and 150 min postinfection in presence of 14:1 ratio of compound to beta-lactamase inhibitor BLI-489; format: functional
Salmonella typhimurium [15] = test: Antimicrobial activity against CTX-M-5 beta-lactamase producing Salmonella enterica serovar Typhimurium GC 4195 infected in CD-1 mouse treated 30 and 150 mins postinfection in presence of 8:1 ratio of compound to beta-lactamase inhibitor BLI-489; format: functional, Salmonella enterica subsp. enterica serovar Typhimurium
Enterobacter cloacae [16] = test: Antimicrobial activity against AmpC beta-lactamase producing Enterobacter cloacae GC 4142 infected in CD-1 mouse treated 30 and 150 mins postinfection in presence of beta-lactamase inhibitor Tazobactam; format: functional
Enterobacter cloacae [17] = test: Antimicrobial activity against AmpC beta-lactamase producing Enterobacter cloacae GC 4142 infected in CD-1 mouse treated 30 and 150 min postinfection in presence of 4:1 ratio of compound to beta-lactamase inhibitor BLI-489; format: functional
Escherichia coli [18] = test: Antimicrobial activity against TEM-1 beta-lactamase producing Escherichia coli GC 6265 infected in CD-1 mouse treated 30 mins postinfection in presence of 6:1 ratio of compound to beta-lactamase inhibitor BLI-489; format: functional; details: GC 6265, 0.5 h
Escherichia coli [19] = test: Antimicrobial activity against OXA-1 beta-lactamase producing Escherichia coli GAR 5946 infected in CD-1 mouse treated 30 and 150 mins postinfection in presence of 8:1 ratio of compound to beta-lactamase inhibitor BLI-489; format: functional
Klebsiella pneumoniae [20] = test: Antimicrobial activity against SHV-11beta-lactamase producing Klebsiella pneumoniae GAR 7693 infected in CD-1 mouse treated 30 and 150 mins postinfection in presence of beta-lactamase inhibitor Tazobactam; format: functional
Klebsiella pneumoniae [21] = test: Antimicrobial activity against SHV-1and SHV-5 beta-lactamase producing Klebsiella pneumoniae GAR 7978 by broth microdilution method in presence of 8:1 ratio of compound to beta-lactamase inhibitor BLI-489; format: functional
Escherichia coli [22] = test: Antimicrobial activity against TEM-1 beta-lactamase producing Escherichia coli GC 6265 infected in CD-1 mouse treated 30 mins postinfection; format: functional; details: GC 6265, 0.5 h
Klebsiella pneumoniae [23] = test: Antimicrobial activity against SHV-11 beta-lactamase producing Klebsiella pneumoniae GAR 7693 by broth microdilution method in presence of 8:1 ratio of compound to beta-lactamase inhibitor BLI-489; format: functional
Escherichia coli [24] = test: Antimicrobial activity against ACT-1 beta-lactamase producing Escherichia coli GC 2814 infected in CD-1 mouse treated 30 and 150 mins postinfection in presence of beta-lactamase inhibitor Tazobactam; format: functional
Escherichia coli [25] = test: Antimicrobial activity against OXA-1 beta-lactamase producing Escherichia coli GAR 5946 by broth microdilution method in presence of beta-lactamase inhibitor Tazobactam; format: functional
Escherichia coli [26] = test: Antimicrobial activity against ACT-1 beta-lactamase producing Escherichia coli GC 2814 infected in CD-1 mouse treated 30 and 150 mins postinfection; format: functional
Escherichia coli [27] = test: Antimicrobial activity against TEM-1 beta-lactamase producing Escherichia coli GC 6265 infected in CD-1 mouse treated 30 mins postinfection in presence of beta-lactamase inhibitor Tazobactam; format: functional; details: GC 6265, 0.5 h
Klebsiella pneumoniae [28] = test: Antimicrobial activity against SHV-1and SHV-5 beta-lactamase producing Klebsiella pneumoniae GAR 7978 infected in CD-1 mouse treated 30 and 150 mins postinfection in presence of beta-lactamase inhibitor Tazobactam; format: functional
Salmonella typhimurium [29] = test: Antimicrobial activity against CTX-M-5 beta-lactamase producing Salmonella enterica serovar Typhimurium GC 4195 by broth microdilution method; format: functional, Salmonella enterica subsp. enterica serovar Typhimurium
Escherichia coli [30] = test: Antimicrobial activity against ACT-1 beta-lactamase producing Escherichia coli GC 2814 by broth microdilution method in presence of beta-lactamase inhibitor Tazobactam; format: functional
Escherichia coli [31] = test: Antimicrobial activity against TEM-1 beta-lactamase producing Escherichia coli GC 6265 by broth microdilution method in presence of beta-lactamase inhibitor Tazobactam; format: functional
Pseudomonas aeruginosa [32] = test: Antimicrobial activity against AmpC beta-lactamase producing Pseudomonas aeruginosa GC 1764 infected in CD-1 mouse treated 30 and 150 mins postinfection; format: functional
Klebsiella pneumoniae [33] = test: Antimicrobial activity against SHV-1and SHV-5 beta-lactamase producing Klebsiella pneumoniae GAR 7978 infected in CD-1 mouse treated 30 and 150 mins postinfection in presence of 8:1 ratio of compound to beta-lactamase inhibitor BLI-489; format: functional
Escherichia coli [34] = test: Antimicrobial activity against TEM-10 beta-lactamase producing Escherichia coli GC 2022 infected in CD-1 mouse treated 30 mins postinfection; format: functional; details: GC 2022, 0.5 h
Escherichia coli [35] = test: Antimicrobial activity against TEM-1 beta-lactamase producing Escherichia coli GC 6265 infected in CD-1 mouse treated 30 mins postinfection in presence of 2:1 ratio of compound to beta-lactamase inhibitor BLI-489; format: functional; details: GC 6265, 0.5 h
Enterobacter cloacae [36] = test: Antimicrobial activity against AmpC beta-lactamase producing Enterobacter cloacae GC 4142 infected in CD-1 mouse treated 30 and 150 min postinfection in presence of 10:1 ratio of compound to beta-lactamase inhibitor BLI-489; format: functional

Structure (SMILES): CCN1CCN(C(=O)N[C@@H](C(=O)N[C@@H]2C(=O)N3[C@@H]2SC(C)(C)[C@@H]3C(=O)O)c2ccccc2)C(=O)C1=O [PIPERACILLIN]
- ED50 (Salmonella typhimurium [1]): 1120 mg/kg
- MIC (Enterobacter cloacae [2]): 8 µg/mL (≈ 15.5 µM)
- MIC (Enterobacter cloacae [3]): > 64 µg/mL
- ED50 (Staphylococcus aureus [4]): 418 mg/kg
- ED50 (Escherichia coli [5]): 270 mg/kg
- MIC (Escherichia coli [6]): > 64 µg/mL
- ED50 (Enterobacter cloacae [7]): 30 mg/kg
- ED50 (Staphylococcus aureus [8]): 12 mg/kg
- ED50 (Pseudomonas aeruginosa [9]): 246 mg/kg
- ED50 (Escherichia coli [10]): 980 mg/kg
- ED50 (Escherichia coli [11]): 11 mg/kg
- ED50 (Staphylococcus aureus [12]): 16 mg/kg
- ED50 (Enterobacter cloacae [13]): 282 mg/kg
- ED50 (Enterobacter cloacae [14]): 69 mg/kg
- ED50 (Salmonella typhimurium [15]): 45 mg/kg
- ED50 (Enterobacter cloacae [16]): 71 mg/kg
- ED50 (Enterobacter cloacae [17]): 30 mg/kg
- ED50 (Escherichia coli [18]): 12 mg/kg
- ED50 (Escherichia coli [19]): 86 mg/kg
- ED50 (Klebsiella pneumoniae [20]): 24 mg/kg
- MIC (Klebsiella pneumoniae [21]): 8 µg/mL
- ED50 (Escherichia coli [22]): 176 mg/kg
- MIC (Klebsiella pneumoniae [23]): > 64 µg/mL
- ED50 (Escherichia coli [24]): 45 mg/kg
- MIC (Escherichia coli [25]): 0.25 µg/mL
- ED50 (Escherichia coli [26]): 103 mg/kg
- ED50 (Escherichia coli [27]): 11 mg/kg
- ED50 (Klebsiella pneumoniae [28]): 58 mg/kg
- MIC (Salmonella typhimurium [29]): 8 µg/mL (≈ 15.5 µM)
- MIC (Escherichia coli [30]): > 64 µg/mL
- MIC (Escherichia coli [31]): 128 µg/mL
- ED50 (Pseudomonas aeruginosa [32]): 980 mg/kg
- ED50 (Klebsiella pneumoniae [33]): 28 mg/kg
- ED50 (Escherichia coli [34]): 301 mg/kg
- ED50 (Escherichia coli [35]): 8.5 mg/kg
- ED50 (Enterobacter cloacae [36]): 47 mg/kg
